Test results as given in patent US8420670B2 (Abbott Laboratories, priority 2007, dated 2013).
Structures can show the parent of a compound that is named as a salt.

Columns and labels:
human GlyT1c transporter = target: T1, human GlyT1c transporter (Homo sapiens, UniProt P48067); test: [3H]-(R)-NPTS radioligand binding assay using recombinant hGlyT1 expressing cell membranes; settings: 0.5 nM [3H]-(R)-NPTS, apparent Ki via Cheng-Prusoff, read-out: [3H]-(R)-NPTS bindung Ki
T1 construct: expressed in transfected cells; host or cells: recombinant hGlyT1-expressing cells
T1 sequence (P48067 1-706): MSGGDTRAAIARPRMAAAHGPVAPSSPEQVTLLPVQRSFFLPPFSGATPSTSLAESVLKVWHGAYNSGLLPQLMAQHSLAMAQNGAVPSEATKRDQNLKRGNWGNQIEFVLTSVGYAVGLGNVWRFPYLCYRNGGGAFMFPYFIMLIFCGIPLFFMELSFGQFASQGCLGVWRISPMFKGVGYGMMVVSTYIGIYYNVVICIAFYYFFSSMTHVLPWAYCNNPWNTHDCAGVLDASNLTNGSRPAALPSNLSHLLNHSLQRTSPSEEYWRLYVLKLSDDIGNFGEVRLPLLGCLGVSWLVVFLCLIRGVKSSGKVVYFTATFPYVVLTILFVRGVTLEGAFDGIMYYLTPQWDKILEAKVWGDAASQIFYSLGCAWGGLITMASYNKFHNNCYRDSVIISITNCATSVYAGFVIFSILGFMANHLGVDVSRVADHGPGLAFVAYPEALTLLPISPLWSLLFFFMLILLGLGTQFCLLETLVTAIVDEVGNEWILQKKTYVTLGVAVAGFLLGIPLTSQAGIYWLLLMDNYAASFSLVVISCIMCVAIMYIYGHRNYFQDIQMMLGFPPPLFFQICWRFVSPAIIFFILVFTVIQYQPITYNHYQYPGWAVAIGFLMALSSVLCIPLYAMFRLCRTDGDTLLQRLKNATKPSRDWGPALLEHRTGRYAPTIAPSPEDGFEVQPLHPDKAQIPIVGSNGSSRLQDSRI
Method: 2. [^3H]-(R)-NPTS Radioligand Binding Assays using Recombinant hGlyT1 Expressing Cell Membranes:
Radioligand binding to human GlyT1c transporter-expressing membranes was measured in duplicate in a total volume of 200 μl in 96-well plates. To 100 μl of membrane suspension (yielding a final membrane protein concentration of 50 μg/ml) in assay buffer (120 mM NaCl, 2 mM KCl, 10 mM Hepes, 1 mM MgCl2, 1 mM CaCl2, pH 7.5) […] of [^3H]-(R)NPTS (0.5 nM final) were added in assay buffer. For competition experiments 10 μl of buffer or unlabeled compound solution obtained from dilution series of test compounds in DMSO followed. An intermediate 1:10 dilution in assay buffer yielded a final DMSO concentration of 1%. Non-specific binding was determined in the presence of 10 μM Org24598 (or its racemate Org24461) for [^3H]-(R)-NPTS. After incubation at room temperature for 1 h, the incubation mixture was harvested (Tomtec Mach III U Harvester) through 96-well GF/B filter plates (PerkinElmer), presoaked for 1 h with 40 μl per well of 0.1% polyethylene-imine (PEI). After washing twice with ice-cold 50 mM Tris-HCl pH 7.4 buffer, drying and addition of 35 μl scintillator (BetaplateScint, PerkinElmer) per well followed. The radioactivity was determined by liquid scintillation spectrometry in a MicroBeta (PerkinElmer) plate counter.
Data analysis: For binding of [^3H]-(R)-NPTS to cell membranes, the calculation of Kd and Bmax values from the saturation binding assays and the IC50 values from the displacement binding was performed by iterative non-linear regression analysis adapted from the ‘Ligand’ program (Munson and Rodbard, 1980). Radioligand displacement curves in absence or in presence of increasing concentrations of tested compounds were fitted using a one-site fit and the apparent Ki values were calculated from the IC50 values using the Cheng-Prusoff equation (Cheng and Prusoff 1973).

Human GlyT1c = target: T2, Human GlyT1c (Homo sapiens, UniProt P48067); test: Glycine uptake in recombinant hGlyT1 expressing cells; format: cell-based; settings: hGlyT1c_5_CHO cells; [3H]-glycine uptake, 60-120 min
T2 construct: expressed in transfected cells; host or cells: CHO (hGlyT1c_5_CHO clone)
T2 sequence (P48067 1-706): T1 sequence (P48067 1-706)
Method: 1. Glycine Uptake in Recombinant hGlyT1 Expressing Cells:
Human GlyT1c expressing recombinant hGlyT1c—5_CHO cells were plated at 20,000 cells per well in 96 well Cytostar-T scintillation microplates (Amersham Biosciences) and cultured to sub-confluency for 24 h. For glycine uptake assays the culture medium was aspirated and the cells were washed once with 100 μl HBSS (Gibco BRL, #14025-050) with 5 mM L-Alanine (Merck #1007). 80 μl HBSS buffer were added, followed by 10 μl inhibitor or vehicle (10% DMSO) and 10 μl [^3H]-glycine (TRK71, Amersham Biosciences) to a final concentration of […] for initiation of glycine uptake. The plates were placed in a Wallac Microbeta (PerkinElmer) and continuously counted by solid phase scintillation spectrometry during up to 3 hours. Nonspecific uptake was determined in the presence of 10 μM Org24598. IC50 calculations were made by four-parametric logistic nonlinear regression analysis (GraphPad Prism) using determinations within the range of linear increase of [^3H]-glycine incorporation between 60 and 120 min.

Row | SMILES | Ki (human GlyT1c transporter) | IC50 (Human GlyT1c)
1 | C=CCN1CCCC[C@H]1[C@@H](Nc1cc(C)nc2c(OCCNC(=O)OC(C)(C)C)cccc12)c1ccccc1 [Example 33, [2-(4-{[(S)—((S)-1-Allyl-piperidin-2-yl)-phenylmethyl]-amino}-2-methylquinolin-8-yloxy)ethyl]-carbamate tert-butyl ester] | ≤ 10000 nM | ≤ 10000 nM
2 | C=CCN1CCCC[C@H]1[C@@H](Nc1cc(C)nc2c(OCCN)cccc12)c1ccccc1 [Example 34, [(S)—((S)-1-Allylpiperidin-2-yl)-phenylmethyl]-[8-(2-aminoethoxy)-2-methylquinolin-4-yl]-amine] | ≤ 10000 nM | ≤ 100000 nM
3 | C=CCN1CCCC[C@H]1[C@@H](Nc1cc(C)nc2c(OCCNS(C)(=O)=O)cccc12)c1ccccc1 [Example 35, N-[2-(4-{[(S)—((S)-1-Allylpiperidin-2-yl)-phenylmethyl]-amino}-2-methylquinolin-8-yloxy)ethyl]methanesulfonamide] | ≤ 10000 nM | ≤ 10000 nM
4 | Cc1cc(NCc2ccc(Cl)c(Cl)c2)c2cccc(Oc3ccccc3)c2n1 [Example 44, (3,4-Dichlorobenzyl)-(2-methyl-8-phenoxyquinolin-4-yl)-amine] | ≤ 1000 nM | ≤ 1000 nM
5 | CCCOc1cccc2c(NCc3ccc(C(F)(F)F)c(Cl)c3)cc(C)nc12 [Example 45, (3-Chloro-4-trifluoromethylbenzyl)-(2-methyl-8-propoxyquinoline-4-yl)-amine hydrochloride] | ≤ 10000 nM | ≤ 10000 nM
6 | Cc1cc(NCc2ccc(Cl)c(Cl)c2)c2cccc(OCc3ccccc3)c2n1 [Example 46, (8-Benzyloxy-2-methylquinolin-4-yl)-(3,4-dichlorobenzyl)-amine] | ≤ 100 nM | ≤ 1000 nM
7 | Cc1cc(NCc2ccc(Cl)c(Cl)c2)c2cccc(OCCn3cccn3)c2n1 [Example 47, (3,4-Dichlorobenzyl)-[2-methyl-8-(2-pyrazol-1-yl-ethoxy)-quinolin-4-yl]-amine hydrochloride] | ≤ 100 nM | ≤ 1000 nM
8 | Cc1cc(NCc2ccc(Cl)c(Cl)c2)c2cccc(OCCN3CCOCC3)c2n1 [Example 48, (3,4-Dichlorobenzyl)-[2-methyl-8-(2-morpholin-4-yl-ethoxy)-quinolin-4-yl]-amine dihydrochloride] | ≤ 100 nM | ≤ 100 nM
9 | COCCOc1cccc2c(NCc3ccc(Cl)c(Cl)c3)cc(C)nc12 [Example 49, (3,4-Dichlorobenzyl)-[8-(2-methoxyethoxy)-2-methylquinolin-4-yl]-amine] | ≤ 100 nM | ≤ 100 nM
10 | Cc1cc(NCc2ccc(Cl)c(Cl)c2)c2cccc(OCCN(C)C)c2n1 [Example 50, (3,4-Dichlorobenzyl)-[8-(2-dimethylamino-ethoxy)-2-methylquinolin-4-yl]-amine dihydrochloride] | ≤ 100 nM | ≤ 1000 nM
11 | Cc1cc(NCc2ccc(Cl)c(Cl)c2)c2cccc(OCC(C)C)c2n1 [Example 51, (3,4-Dichlorobenzyl)-(8-isobutoxy-2-methylquinolin-4-yl)-amine] | ≤ 1000 nM | ≤ 1000 nM

Next, values leading:

Row | Ki (human GlyT1c transporter) | IC50 (Human GlyT1c) | SMILES
12 | ≤ 100 nM | ≤ 1000 nM | Cc1cc(NCc2ccc(Cl)c(Cl)c2)c2cccc(OCCNS(=O)(=O)c3ccc4ccccc4c3)c2n1 [Example 28, Naphthyl-2-sulfonic {2-[4-(3,4-dichlorobenzylamino)-2-methylquinolin-8-yloxy]-ethyl}-amide]
13 | ≤ 100 nM | ≤ 100 nM | Cc1cc(NCc2ccc(Cl)c(Cl)c2)c2cccc(OCCNS(=O)(=O)C(F)(F)F)c2n1 [Example 29, N-{2-[4-(3,4-Dichlorobenzylamino)-2-methylquinolin-8-yloxy]-ethyl}-C,C,C-trifluoromethanesulfonamide]
14 | ≤ 10 nM | ≤ 100 nM | Cc1cc(NCc2ccc(Cl)c(Cl)c2)c2cccc(OCCNS(=O)(=O)c3cccnc3)c2n1 [Example 30, Pyridine-3-sulfonic {2-[4-(3,4-dichlorobenzylamino)-2-methylquinolin-8-yloxy]-ethyl}amide]
15 | ≤ 10 nM | ≤ 100 nM | Cc1cc(NCc2ccc(Cl)c(Cl)c2)c2cccc(OCCNS(=O)(=O)CC(C)C)c2n1 [Example 31, 2-Methylpropane-1-sulfonic {2-[4-(3,4-dichlorobenzylamino)-2-methylquinolin-8-yloxy]-ethyl}-amide]
16 | ≤ 100 nM | ≤ 1000 nM | Cc1cc(NCc2ccc(Cl)c(Cl)c2)c2cccc(OCCNS(=O)(=O)Cc3ccccc3)c2n1 [Example 32, N-{2-[4-(3,4-Dichloro-benzylamino)-2-methylquinolin-8-yloxy]-ethyl}-C-phenyl-methanesulfonamide]
17 | ≤ 100 nM | ≤ 10000 nM | Cc1cc(NCc2ccc(Cl)cc2Cl)c2cccc(OCCN)c2n1 [Example 36, [8-(2-Aminoethoxy)-2-methylquinolin-4-yl]-(2,4-dichlorobenzyl)-amine]
18 | ≤ 100 nM | ≤ 1000 nM | Cc1cc(N[C@@H](c2ccccc2)[C@@H]2CCCCN2)c2cccc(OCCNS(C)(=O)=O)c2n1 [Example 37, N-(2-{2-Methyl-4-[((S)-phenyl-(S)-piperidin-2-yl-methyl)-amino]-quinolin-8-yloxy}-ethyl)methanesulfonamide dihydrochloride]
19 | ≤ 100 nM | ≤ 1000 nM | Cc1cc(NCc2ccc(Cl)cc2Cl)c2cccc(OCCNS(C)(=O)=O)c2n1 [Example 38, N-{2-[4-(2,4-Dichlorobenzylamino)-2-methylquinolin-8-yloxy]-ethyl}-methanesulfonamide]
20 | ≤ 100 nM | ≤ 1000 nM | Cc1cc(NCc2ccc(Cl)cc2Cl)c2cccc(OCCNS(=O)(=O)CC(C)C)c2n1 [Example 39, 2-Methylpropane-1-sulfonic {2-[4-(2,4-dichlorobenzylamino)-2-methylquinolin-8-yloxy]-ethyl}-amide]
21 | ≤ 100 nM | ≤ 10000 nM | Cc1cc(N[C@@H](c2ccccc2)[C@@H]2CCCCN2)c2cccc(OCCNS(=O)(=O)c3cccnc3)c2n1 [Example 40, Pyridin-3-sulfonic (2-{2-methyl-4-[((S)-phenyl-(S)-piperidin-2-yl-methyl)-amino]-quinolin-8-yloxy}-ethyl)-amide dihydrochloride]
22 | ≤ 100 nM | ≤ 1000 nM | Cc1cc(NCc2ccc(Cl)c(Cl)c2)c2cccc(O)c2n1 [Example 41, 4-(3,4-Dichlorobenzylamino)-2-methylquinolin-8-ol]
23 | ≤ 100 nM | ≤ 100 nM | Cc1cc(NCc2ccc(Cl)c(Cl)c2)c2cccc(OC(C)C)c2n1 [Example 42, (3,4-Dichlorobenzyl)-(8-isopropoxy-2-methylquinolin-4-yl)-amine hydrochloride]
24 | ≤ 100 nM | ≤ 1000 nM | CCCOc1cccc2c(NCc3ccc(Cl)c(Cl)c3)cc(C)nc12 [Example 43, (3,4-Dichlorobenzyl)-(2-methyl-8-propoxyquinolin-4-yl)-amine]
